Measurements taken from US4514408A, “N-substituted nicotinamide 1-oxide as histamine H2 receptor blockers” (Sanofi, priority 1982, dated 1985).

Experiments:
[1] = target: T1, gastric histamine H2 receptors (Rattus norvegicus, UniProt P25102); assay: antisecretory activity: antagonism of gastric hypersecretion induced by histamine in the atropinised rat (Ghosh and Schild modified according to Black); assay type: in vivo; settings: for ED50: intravenous, single administration, histamine i.v. infusion 15 mcmol/kg/hour, atropinised rat, read-out: ID50 (dose which inhibits by 50% the gastric hypersecretion induced by histamine)
T1 construct: the gastric secretion is measured by perfusion of a physiological solution at a constant speed in the stomach of the animal; from tissue; host or cells: stomach of the living atropinised rat (in vivo, endogenous receptor)
T1 sequence (P25102 whole entry, the tested form may be a part): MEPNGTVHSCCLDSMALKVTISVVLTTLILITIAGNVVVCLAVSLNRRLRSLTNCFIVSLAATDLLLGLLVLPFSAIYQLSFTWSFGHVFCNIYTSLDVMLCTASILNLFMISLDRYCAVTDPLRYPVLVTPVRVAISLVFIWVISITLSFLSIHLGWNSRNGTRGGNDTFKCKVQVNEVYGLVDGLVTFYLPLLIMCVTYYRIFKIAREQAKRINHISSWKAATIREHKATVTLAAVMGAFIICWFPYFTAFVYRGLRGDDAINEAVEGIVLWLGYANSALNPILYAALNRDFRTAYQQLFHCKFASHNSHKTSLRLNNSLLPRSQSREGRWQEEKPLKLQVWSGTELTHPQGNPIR
Experimental: According to this test, a gastric acid hypersecretion is induced by intravenous infusion of a sub-maximal dose of histamine equivalent to 15 mcmol/kg/hour and the gastric secretion is measured by perfusion of a physiological solution at a constant speed in the stomach of the animal.
Cimetidine and ranitidine, which represent standard compounds, as well as:
the compound of formula [drawing 5] as oxalate, and […]

histamine H2 receptors = settings: i.v.; cited from earlier work
[2] = from ID50, i.v., cimetidine = 1

| Relative potency (cimetidine = 1) [1, 2] | ED50 [1] [µmol/kg] | Structure (SMILES) | ED50 (histamine H2 receptors) [mg/kg] | Relative potency (cimetidine = 1) ([1]; rat, in vivo, iv) |
| --- | --- | --- | --- | --- |
| 8.64 | 0.11 | O=C(NCCCOc1cccc(CN2CCCCC2)c1)c1ccc[n+]([O-])c1 [SR 58017A, N-[3-(3-piperidinomethylphenoxy)propyl]-3-pyridinecarboxamide 1-oxide sesquioxalate] | – | – |
| 2.43 | 0.39 | O=C(NCCCOc1cccc(CN2CCCC2)c1)c1ccc[n+]([O-])c1 [CM 57891, N-[3-(3-pyrrolidinomethylphenoxy)propyl]-3-pyridinecarboxamide 1-oxide] | – | – |
| 1.34 | 0.71 | O=C(NCCCOc1cccc(CN2CCC(O)CC2)c1)c1ccc[n+]([O-])c1 [SR 58067, N-[3-[3-(4-hydroxypiperidinomethyl)phenoxy]propyl]-3-pyridinecarboxamide 1-oxide] | – | – |
| 7.31 | 0.13 | CC1CCN(Cc2cccc(OCCCNC(=O)c3ccc[n+]([O-])c3)c2)CC1 [SR 58037, N-[3-[3-(4-methylpiperidinomethyl)phenoxy]propyl]-3-pyridinecarboxamide 1-oxide] | – | – |
| 3.80 | 0.25 | O=C(NCCCOc1cccc(CN2CCCCCC2)c1)c1ccc[n+]([O-])c1 [SR 58052, N-[3-(3-hexamethyleneiminomethylphenoxy)propyl]-3-pyridinecarboxamide 1-oxide] | – | – |
| 6.78 | 0.14 | CC1CCCN(Cc2cccc(OCCCNC(=O)c3ccc[n+]([O-])c3)c2)C1 (centres unmarked) [SR 58042, N-[3-[3-(3-methylpiperidinomethyl)phenoxy]propyl]-3-pyridinecarboxamide1-oxide] | – | – |

Further lines, the compound ahead of its results:

| Structure (SMILES) | Relative potency (cimetidine = 1) [1, 2] | ED50 [1] [µmol/kg] | ED50 (histamine H2 receptors) [mg/kg] | Relative potency (cimetidine = 1) ([1]; rat, in vivo, iv) |
| --- | --- | --- | --- | --- |
| O=CNCCCOc1cccc(CN2CCCC2)c1 [Compound IV, reference compound] | 0.47 | 2.01 | 0.84 | – |
| CNC(=C[N+](=O)[O-])NCCSCc1ccc(CN(C)C)o1 [Ranitidine, N-[2-[[5-[(dimethylamino)methyl]furfuryl]thio]ethyl]-N'-methyl-2-nitro-1,1-ethenediamine, reference compound] | – | – | – | 3.80 |
| O=C(NCCCOc1cccc(CN2CCCC2)c1)c1cccnc1 [Compound V, reference compound] | 0.43 | 2.22 | 1.25 | – |
| O=C(NCCCOc1cc(CN2CCCCC2)ccn1)c1ccc[n+]([O-])c1 [SR 58065, N-[3-(4-piperidinomethylpyrid-2-yloxy)propyl]3-pyridinecarboxamide 1-oxide] | 1.48 | 0.64 | – | – |
| CCCCN(CCCC)Cc1cccc(OCCCNC(=O)c2ccc[n+]([O-])c2)c1 [SR 58062, N-[3-(3-di-n-butylaminomethylphenoxy)propyl]-3-pyridinecarboxamide 1-oxide] | 1.19 | 0.8 | – | – |
